Values quoted from earlier work, collected in US6605304B1, “Silicate-containing powders providing controlled, sustained gas release” (Bernard Technologies, Inc., priority 1998, dated 2003).

Legend:
[1] = tested on: mold spores, bacteria and other microbiological contaminants

SMILES: [O][Cl+][O-] [chlorine dioxide]
- concentration that penetrates and destroys contaminants [1]: below one
- chromosomal aberrations or micronuclei in the bone marrow (mice; mice, subchronic and acute oral administration): failed to induce any chromosomal aberrations or increased numbers of micronuclei

SMILES: OCl [hypochlorite]
- mutagenic potential (mice; mouse, in vivo, po): weak positive effect
